Values quoted from earlier work in patent publication US20130064888A1, “PHARMACEUTICAL FORMULATIONS” (priority 2011, published 2013).

Experiments:
[1] = at 25° C.; practically insoluble in water
[2] = many organic solvents, including ethanol

## 5-chloro-N-({(5S)-2-oxo-3-[4-(3-oxo-4-morpholinyl)-phenyl]-1,3-oxaolidin-5-yl}methyl-2-thiophencarboxamide [Rivaroxaban]
[1]
  water solubility: < 100 µg/mL
[2]
  solubility in organic solvents: low solubility
